Tests used:
[1] = target: T1, hα2A receptor (Homo sapiens, UniProt P08913); test: Radioligand binding experiment for hα2A receptor ([3H]-raulwolscine, CHO cell membranes); settings: [3H]-raulwolscine 1 nM, membranes of CHO cells transfected with human α2A receptor; read-out: pIC50 hα2A (converted)
T1 construct: expressed in transfected cells; host or cells: CHO cells
T1 sequence (P08913 1-465): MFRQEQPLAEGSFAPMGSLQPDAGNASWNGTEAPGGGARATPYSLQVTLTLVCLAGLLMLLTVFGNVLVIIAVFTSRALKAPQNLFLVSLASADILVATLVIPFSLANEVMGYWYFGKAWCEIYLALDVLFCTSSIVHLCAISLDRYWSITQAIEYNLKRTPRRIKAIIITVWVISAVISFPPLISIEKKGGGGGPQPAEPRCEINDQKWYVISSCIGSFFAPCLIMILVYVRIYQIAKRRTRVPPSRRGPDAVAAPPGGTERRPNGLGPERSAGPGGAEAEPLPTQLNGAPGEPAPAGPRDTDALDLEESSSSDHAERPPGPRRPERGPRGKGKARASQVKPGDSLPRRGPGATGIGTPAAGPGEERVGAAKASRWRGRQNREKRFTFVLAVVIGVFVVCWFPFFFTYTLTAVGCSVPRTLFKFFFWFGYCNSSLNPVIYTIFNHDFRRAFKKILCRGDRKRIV
Experimental: (§1) The interaction of the compounds according to Formula (I) with hα2-receptors and h5-HT-transporters was assessed in in vitro radioligand binding experiments. In general, a low concentration of a radioligand with a high binding affinity for a particular receptor or transporter is incubated with a sample of a tissue preparation enriched in a particular receptor or transporter or with a preparation of cells expressing cloned human receptors in a buffered medium. During the incubation, the radioligand binds to the receptor or transporter. When equilibrium of binding is reached, the receptor bound radioactivity is separated from the non-bound radioactivity, and the receptor- or transporter-bound activity is counted. The interaction of the test compounds with the receptor is assessed in competition binding experiments. Various concentrations of the test compound are added to the incubation mixture containing the receptor- or transporter preparation and the radioligand. The test compound in proportion to its binding affinity and its concentration inhibits binding of the radioligand. The radioligand used for hα2A, hα2B and hα2C receptor binding was [^3H]-raulwolscine and for the h5-HT transporter was [^3H]paroxetine.
(§2) CHO cells, stabile transfected with human adrenergic-α2A-, —α2B or α2C receptor cDNA, were cultured in Dulbecco's Modified Eagle's Medium (DMEM)/Nutrient mixture Ham's F12 (ratio 1:1)(Gibco, Gent-Belgium) supplemented with 10% heat inactivated fetal calf serum (Life Technologies, Merelbeke-Belgium) and antibiotics (100 IU/ml penicillin G, 100 μg/ml streptomycin sulphate, 110 μg/ml pyruvic acid and 100 μg/ml L-glutamine). One day before collection, cells were induced with 5 mM sodiumbutyrate. Upon 80-90% of confluence, cells were scraped in phosphate buffered saline without Ca^2+ and Mg^2+ and collected by centrifugation at 1500×g for 10 min. The cells were homogenised in Tris-HCl 50 mM using an Ultraturrax homogenizer and centrifuged for 10 min at 23,500×g. The pellet was washed once by resuspension and rehomogenization and the final pellet was resuspended in Tris-HCl, divided in 1 ml aliquots and stored at −70° C.
(§3) Membranes were thawed and re-homogenized in incubation buffer (glycylglycine 25 mM, pH 8.0). In a total volume of 500 μl, 2-10 μg protein was incubated with [^3H]raulwolscine (NET-722) (New England Nuclear, USA) (1 nM final concentration) with or without competitor for 60 min at 25° C. followed by rapid filtration over GF/B filter using a Filtermate196 harvester (Packard, Meriden, Conn.). Filters were rinsed extensively with ice-cold rinsing buffer (Tris-HCl 50 mM pH 7.4). Filter-bound radioactivity was determined by scintillation counting in a Topcount (Packard, Meriden, Conn.) and results were expressed as counts per minute (cpm). Non-specific binding was determined in the presence of 1 μM oxymetazoline for hα2A- and hα2B receptors and 1 μM spiroxatrine for hα2C receptors.
(§4) Data from assays in the presence of compound were calculated as a percentage of total binding measured in the absence of test compound. Inhibition curves, plotting percent of total binding versus the log value of the concentration of the test compound, were automatically generated, and sigmoidal inhibition curves were fitted using non-linear regression. The pIC50 values of test compounds were derived from individual curves.

[2] = target: T2, hα2C receptor (Homo sapiens, UniProt P18825); test: Radioligand binding experiment for hα2C receptor ([3H]-raulwolscine, CHO cell membranes); settings: [3H]-raulwolscine 1 nM, membranes of CHO cells transfected with human α2C receptor; read-out: pIC50 hα2C (converted)
T2 construct: expressed in transfected cells; host or cells: CHO cells
T2 sequence (P18825 1-462): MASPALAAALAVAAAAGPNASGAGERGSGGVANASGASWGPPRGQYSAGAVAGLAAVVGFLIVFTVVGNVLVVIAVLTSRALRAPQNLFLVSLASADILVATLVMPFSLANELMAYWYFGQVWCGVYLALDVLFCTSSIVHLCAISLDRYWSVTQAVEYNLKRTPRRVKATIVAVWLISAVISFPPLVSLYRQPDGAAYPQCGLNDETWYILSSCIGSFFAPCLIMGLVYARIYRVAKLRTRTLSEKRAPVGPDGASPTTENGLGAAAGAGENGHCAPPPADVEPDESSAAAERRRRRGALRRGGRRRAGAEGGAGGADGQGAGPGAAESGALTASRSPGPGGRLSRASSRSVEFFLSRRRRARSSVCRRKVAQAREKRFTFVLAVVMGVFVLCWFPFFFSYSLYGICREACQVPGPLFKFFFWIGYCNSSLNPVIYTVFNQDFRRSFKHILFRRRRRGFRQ
Experimental: as §1, §2, §3, §4

[3] = target: T3, h5-HT transporter (Homo sapiens, UniProt P31645); test: Radioligand binding experiment for 5-HT transporter ([3H]paroxetine, human platelet membranes); settings: [3H]paroxetine 0.5 nM, read-out: pIC50 h5HTT (converted)
T3 construct: Human platelet membranes (Oceanix Biosciences Corporation, Hanover, Md., USA) were thawed; tissue Oceanix Biosciences Corporation; host or cells: human platelet membranes
T3 sequence (P31645 whole entry): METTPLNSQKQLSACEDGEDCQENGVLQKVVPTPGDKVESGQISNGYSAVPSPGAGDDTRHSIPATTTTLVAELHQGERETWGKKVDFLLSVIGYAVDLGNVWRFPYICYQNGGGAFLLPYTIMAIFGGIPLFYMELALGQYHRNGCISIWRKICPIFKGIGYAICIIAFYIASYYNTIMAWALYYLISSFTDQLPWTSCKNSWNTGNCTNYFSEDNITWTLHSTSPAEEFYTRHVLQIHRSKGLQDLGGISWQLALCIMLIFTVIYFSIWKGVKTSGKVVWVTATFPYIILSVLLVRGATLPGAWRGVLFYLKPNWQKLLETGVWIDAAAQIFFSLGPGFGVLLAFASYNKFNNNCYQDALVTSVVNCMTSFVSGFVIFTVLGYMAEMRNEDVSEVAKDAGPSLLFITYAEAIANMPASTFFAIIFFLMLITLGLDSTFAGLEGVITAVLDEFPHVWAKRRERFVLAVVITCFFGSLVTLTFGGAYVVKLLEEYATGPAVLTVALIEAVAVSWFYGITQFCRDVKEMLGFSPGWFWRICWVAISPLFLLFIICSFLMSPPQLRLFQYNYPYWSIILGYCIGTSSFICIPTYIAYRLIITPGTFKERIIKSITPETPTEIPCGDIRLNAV
Experimental: as §1
Human platelet membranes (Oceanix Biosciences Corporation, Hanover, Md., USA) were thawed, diluted in buffer (Tris-HCl 50 mM, 120 mM NaCl and 5 mM KCl) and quickly (max 3 s) homogenised with an Ultraturrax homogenizer. In a total volume of 250 μL, 50-100 μg protein was incubated with [^3H]paroxetine (NET-869) (New England Nuclear, USA) (0.5 nM final concentration) with or without competitor for 60 min at 25° C. Incubation was stopped by rapid filtration of the incubation mixture over GF/B filters, pre-wetted with 0.1% polyethyleneamine, using a Filtermate 196 harvester (Packard, Meriden, Conn.). Filters were rinsed extensively with ice-cold buffer and radioactivity on the filters was counted in a Topcount liquid scintillation counter (Packard, Meriden, Conn.). Data were expressed as cpm. Imipramine (at 1 μM final concentration) was used to determine the non-specific binding.
as §4

[4] = target: T4, hα2B receptor (Homo sapiens, UniProt P18089); test: Radioligand binding experiment for hα2B receptor ([3H]-raulwolscine, CHO cell membranes); settings: [3H]-raulwolscine 1 nM, membranes of CHO cells transfected with human α2B receptor; read-out: pIC50 hα2B (converted)
T4 construct: expressed in transfected cells; host or cells: CHO cells
T4 sequence (P18089 1-450): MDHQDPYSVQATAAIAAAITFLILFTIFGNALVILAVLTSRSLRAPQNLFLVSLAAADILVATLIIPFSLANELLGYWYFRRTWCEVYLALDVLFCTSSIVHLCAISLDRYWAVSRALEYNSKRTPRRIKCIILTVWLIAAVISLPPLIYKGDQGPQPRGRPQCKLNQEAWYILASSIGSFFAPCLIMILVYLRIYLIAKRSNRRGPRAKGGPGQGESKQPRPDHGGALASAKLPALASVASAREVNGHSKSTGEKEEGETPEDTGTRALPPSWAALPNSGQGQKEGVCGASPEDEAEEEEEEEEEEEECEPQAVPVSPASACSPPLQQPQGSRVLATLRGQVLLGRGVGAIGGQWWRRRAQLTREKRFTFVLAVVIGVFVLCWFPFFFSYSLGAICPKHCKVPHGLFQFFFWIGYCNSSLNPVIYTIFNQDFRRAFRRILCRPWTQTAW
Experimental: as §1, §2, §3, §4

| Structure (SMILES) | IC50 [1] | IC50 [2] | IC50 [3] | IC50 [4] |
| --- | --- | --- | --- | --- |
| COc1cc2c(cc1COC(C)=O)OCC1C2=NOC1CN1CCN(C/C(C)=C/c2ccccc2)CC1 (stereo not shown) [Compound 7, Acetic acid 8-methoxy-3-[4-(2-methyl-3-phenyl-allyl)-piperazin-1-ylmethyl]-3a,4-dihydro-3H-chromeno[4,3-c]isoxazol-7-ylmethyl ester] | 3.98 nM | 1.26 nM | 12.6 nM | – |
| COCCOCOCc1cc2c(cc1OC)C1=NOC(CN3CCN(C/C(C)=C/c4ccccc4)CC3)C1CO2 (stereo not shown) [Compound 6, 8-Methoxy-7-(2-methoxy-ethoxymethoxymethyl)-3-[4-(2-methyl-3-phenyl-allyl) -piperazin-1-ylmethyl]-3a,4-dihydro-3H-chromeno[4,3-c]isoxazole] | 7.94 nM | 0.794 nM | 31.6 nM | 2.51 nM |
| COCc1ccc2c(c1)OCC1C2=NOC1CN1CCN(CC(C)=Cc2ccccc2)CC1 (stereo not shown) [Compound 5, 7-Methoxymethyl-3-[4-(2-methyl-3-phenyl-allyl)-piperazin-1-ylmethyl]-3a,4-dihydro-3H-chromeno[4,3-c]isoxazole] | 3.16 nM | 0.794 nM | 158 nM | 2.51 nM |
| COc1cc2c(cc1CN1CCOCC1)OCC1C2=NOC1CN1CCN(C/C(C)=C/c2ccccc2)CC1 (stereo not shown) [Compound 10, 8-Methoxy-3-[4-(2-methyl-3-phenyl-allyl)-piperazin-1-ylmethyl]-7-morpholin-4-ylmethyl-3a,4-dihydro-3H-chromeno[4,3-c]isoxazole] | 6.31 nM | 0.316 nM | 25.1 nM | 3.98 nM |
| C/C(=C\c1ccccc1)CN1CCN(CC2ON=C3c4ccc(/C=N\O)cc4OCC32)CC1 (stereo not shown) [Compound 11, 3-[4-(2-Methyl-3-phenyl-allyl)-piperazin-1-ylmethyl]-3a,4-dihydro-3H -chromeno[4,3-c]isoxazole-7-carbaldehyde oxime] | 5.01 nM | 1.58 nM | 5.01 nM | – |
| COc1cc2c(cc1CO)OCC1C2=NOC1CN1CCN(C/C(C)=C/c2ccccc2)CC1 (stereo not shown) [Compound 4, {8-Methoxy-3-[4-(2-methyl-3-phenyl-allyl)-piperazin-1-ylmethyl]-3a,4-dihydro-3H-chromeno[4,3-c]isoxazol-7-yl}-methanol] | 3.98 nM | 1.58 nM | 100 nM | – |
| CC(=O)NCc1ccc2c(c1)OCC1C2=NOC1CN1CCN(C/C(C)=C/c2ccccc2)CC1 (stereo not shown) [Compound 15, N-{3-[4-(2-Methyl-3-phenyl-allyl)-piperazin-1-ylmethyl]-3a,4-dihydro-3H -chromeno[4,3-c]isoxazol-7-ylmethyl}-acetamide] | 5.01 nM | 0.794 nM | – | – |
| C/C(=C\c1ccccc1)CN1CCN(CC2ON=C3c4ccc(C=O)cc4OCC32)CC1 (stereo not shown) [Compound 19] | 5.01 nM | 0.794 nM | – | – |
| COc1cc2c(cc1C)OCC1C2=NOC1CN1CCN(C/C(C)=C/c2ccccc2)CC1 (stereo not shown) [Compound 2, 8-Methoxy-7-methyl-3-[4-(2-methyl-3-phenyl-allyl)-piperazin-1-ylmethyl]-3a,4-dihydro-3H-chromeno[4,3-c]isoxazole] | 2 nM | 1.58 nM | 20 nM | – |
| CON=Cc1ccc2c(c1)OCC1C2=NOC1CN1CCN(CC(C)=Cc2ccccc2)CC1 (stereo not shown) [Compound 12, 3-[4-(2-Methyl-3-phenyl-allyl)-piperazin-1-ylmethyl]-3a,4-dihydro-3H -chromeno[4,3-c]isoxazole-7-carbaldehyde O-methyl-oxime] | 6.31 nM | 3.98 nM | 100 nM | – |
| COc1cc2c(cc1COc1ccccc1)OCC1C2=NOC1CN1CCN(C/C(C)=C/c2ccccc2)CC1 (stereo not shown) [Compound 8, 8-Methoxy-3-[4-(2-methyl-3-phenyl-allyl)-piperazin-1-ylmethyl]-7-phenoxymethyl-3a,4-dihydro-3H-chromeno[4,3-c]isoxazole] | 25.1 nM | 20 nM | 200 nM | – |
| CCNC(=O)c1cc2c(cc1OC)C1=NOC(CN3CCN(C/C(C)=C/c4ccccc4)CC3)C1CO2 (stereo not shown) [Compound 16, 8-Methoxy-3-[4-(2-methyl-3-phenyl-allyl)-piperazin-1-ylmethyl]-3a,4-dihydro-3H -chromeno[4,3-c]isoxazole-7-carboxylic acid ethylamide] | 3.16 nM | 1.58 nM | 126 nM | – |
| COc1cc2c(cc1-c1ccccc1)OCC1C2=NOC1CN1CCN(C/C(C)=C/c2ccccc2)CC1 (stereo not shown) [Compound 17, 8-Methoxy-3-[4-(2-methyl-3-phenyl-allyl)-piperazin-1-ylmethyl]-7-phenyl-3a,4-dihydro-3H-chromeno[4,3-c]isoxazole] | 15.8 nM | 12.6 nM | 158 nM | – |

— patent US7465741B2, “C-substituted tricyclic isoxazoline derivatives and their use as anti-depressants” (Janssen Pharmaceutica N.V., priority 2002, dated 2008)
